According to BigSolDB 2.1:

Cc1ccc(Nc2nccc(N(C)c3ccc4c(C)n(C)nc4c3)n2)cc1S(N)(=O)=O
solubility (mole fraction)
Details	288.15 K	293.15 K	298.15 K	303.15 K	308.15 K	313.15 K	318.15 K	323.15 K	328.15 K
in acetonitrile	1.08e-06	3.07e-06	5.16e-06	7.86e-06	1.11e-05	1.44e-05	1.8e-05	2.21e-05	2.72e-05
in n-butanol	1.07e-05	1.46e-05	1.88e-05	2.34e-05	2.86e-05	3.42e-05	4.04e-05	4.7e-05	5.43e-05
in n-propanol	9.96e-06	1.33e-05	1.67e-05	2.09e-05	2.55e-05	3.1e-05	3.65e-05	4.39e-05	5.11e-05
